Consider 30 molecules from ChEMBL document CHEMBL3244333, “2-Acetylpyridine thiosemicarbazones. 2. N4,N4-Disubstituted derivatives as potential antimalarial agents” (J Med Chem, 1979).

Data set [1] concerns Plasmodium berghei. Description: Antimalarial activity against Plasmodium berghei KBG 173 infected in mouse assessed as increase of mean survival time at 40 mg/kg. The format is functional.
For data set [2], the system named is Mus musculus. Description: Toxicity in Plasmodium berghei KBG 173 infected mouse at 40 mg/kg. The format is organism-based. Also on record: dose 40 mg/kg. Conditions: in vivo.
For data set [3], the system named is Plasmodium berghei. Briefly: Antimalarial activity against Plasmodium berghei KBG 173 infected in mouse assessed as cured animal from parasite infection at 40 mg/kg. Also on record: dose 40 mg/kg. The format is functional, organism-based.
For data set [4], the system named is Plasmodium berghei. Description: Antimalarial activity against Plasmodium berghei KBG 173 infected in mouse assessed as increase of mean survival time at 160 mg/kg. In kind it is functional.
The test system of data set [5] is Mus musculus. Briefly: Toxicity in Plasmodium berghei KBG 173 infected mouse at 160 mg/kg. In kind it is organism-based. Also on record: dose 160 mg/kg. Conditions: in vivo.
Data set [6] deals with Plasmodium berghei. Briefly: Antimalarial activity against Plasmodium berghei KBG 173 infected in mouse assessed as cured animal from parasite infection at 160 mg/kg. In kind it is functional, organism-based. Also on record: dose 160 mg/kg.
The test system of data set [7] is Plasmodium berghei. Description: Antimalarial activity against Plasmodium berghei KBG 173 infected in mouse assessed as increase of mean survival time at 640 mg/kg. The format is functional.
Data set [8] concerns Mus musculus. Description: Toxicity in Plasmodium berghei KBG 173 infected mouse at 640 mg/kg. The format is organism-based. Also on record: dose 640 mg/kg. The settings on record: in vivo.
The test system of data set [9] is Plasmodium berghei. Description: Antimalarial activity against Plasmodium berghei KBG 173 infected in mouse assessed as cured animal from parasite infection at 640 mg/kg. In kind it is functional, organism-based. Also on record: dose 640 mg/kg.
Data set [10] deals with Plasmodium berghei. Description: Antimalarial activity against Plasmodium berghei KBG 173 infected in mouse assessed as cured animal from parasite infection at 80 mg/kg. The format is functional, organism-based. Also on record: dose 80 mg/kg.
Data set [11] concerns Plasmodium berghei. Briefly: Antimalarial activity against Plasmodium berghei KBG 173 infected in mouse assessed as cured animal from parasite infection at 320 mg/kg. The format is functional, organism-based. Also on record: dose 320 mg/kg.

Active and inactive are the calls of the source. The calls are words filed in the database; no cut-off is given here.

Turning to `C/C(=N/NC(=S)N1CCN(C)CC1)c1ccccn1`, the Survival in the data set on Plasmodium berghei [1], in the data set on Plasmodium berghei [4] and in the data set on Plasmodium berghei [7] was 0 days in each case. Also, the Activity entry in the data set on Mus musculus [2], with Mus musculus [5] and with Mus musculus [8] was “Toxic” in each case. In addition, the outcome in the data set with Plasmodium berghei [3] and in the data set on Plasmodium berghei [6] was Active.

In the case of `C/C(=N/NC(=S)N1CCCC1)c1ccccn1`, the Survival in the data set with Plasmodium berghei [1] came to 8.9 days; with Plasmodium berghei [4] it was 0 days; in the data set with Plasmodium berghei [7] it was 0 days. The Activity result with Mus musculus [2], with Mus musculus [5] and with Mus musculus [8] was “Toxic” throughout. Besides, the result in the data set with Plasmodium berghei [3], in the data set with Plasmodium berghei [6] and in the data set with Plasmodium berghei [9] was Active.

Regarding `C/C(=N/NC(=S)N1CCc2ccccc2C1)c1ccccn1`, the Survival came to 3.5 days with Plasmodium berghei [1] and 7.7 days with Plasmodium berghei [4]. The result in the data set on Plasmodium berghei [6] and in the data set on Plasmodium berghei [9] was Active.

As to `C/C(=N/NC(=S)N1CCCN(C)CC1)c1ccccn1`, the Survival in the data set with Plasmodium berghei [1] is 0.8 days; in the data set on Plasmodium berghei [4], 0.8 days; with Plasmodium berghei [7], 0 days. Besides, the Activity entry with Mus musculus [2], in the data set on Mus musculus [5] and in the data set on Mus musculus [8] was “Toxic” throughout.

Regarding `C/C(=N/NC(=S)N1CCC2(CC1)OCCO2)c1ccccn1`, the Survival with Plasmodium berghei [1], in the data set with Plasmodium berghei [4] and in the data set on Plasmodium berghei [7] was 0 days in each case. For the same molecule, the Activity entry with Mus musculus [2], with Mus musculus [5] and in the data set with Mus musculus [8] was “Toxic” in each case. Also, the result in the data set with Plasmodium berghei [3] and with Plasmodium berghei [6] was Active.

As to `C/C(=N/NC(=S)N1CCCCCCCCCCCC1)c1ccccn1`, the Survival is 0 days with Plasmodium berghei [1], 0.1 days with Plasmodium berghei [4] and 2.9 days with Plasmodium berghei [7].

Regarding `C/C(=N/NC(=S)N(Cc1ccccc1)Cc1ccccc1)c1ccccn1`, the Survival in the data set on Plasmodium berghei [1] is -0.1 days; with Plasmodium berghei [4] it was 1.6 days; in the data set with Plasmodium berghei [7], -0.2 days. In addition, the Activity entry in the data set with Mus musculus [5] and in the data set with Mus musculus [8] was “Toxic” each time.

Regarding `CCCN(CCC)C(=S)N/N=C(/C)c1ccccn1`, the values for the Survival with Plasmodium berghei [1], in the data set on Plasmodium berghei [4] and in the data set on Plasmodium berghei [7] were 0 days, 0 days and 3 days, respectively. Moreover, the Activity entry in the data set with Mus musculus [2] and with Mus musculus [5] was “Toxic” each time. In addition, the outcome in the data set on Plasmodium berghei [3] and in the data set with Plasmodium berghei [6] was Active.

Take `C/C(=N/NC(=S)N1CCC(C)CC1)c1ccccn1`: the result in the data set with Plasmodium berghei [3], in the data set on Plasmodium berghei [6] and in the data set with Plasmodium berghei [9] was Active. Further, the Survival with Plasmodium berghei [4] and in the data set with Plasmodium berghei [7] was 0 days in each case. The Activity result with Mus musculus [5] and in the data set on Mus musculus [8] was “Toxic” in each case.

`C/C(=N/NC(=S)N1CCc2ccccc21)c1ccccn1`: the figures for the Survival in the data set with Plasmodium berghei [1], in the data set on Plasmodium berghei [4] and with Plasmodium berghei [7] were 0.5 days, 0.3 days and 0.3 days, respectively. For the same molecule, the Activity result in the data set on Mus musculus [5] and with Mus musculus [8] was “Toxic” throughout.

Turning to `C/C(=N/NC(=S)N1CCC1)c1ccccn1`, the Survival in the data set with Plasmodium berghei [1] was 1.7 days; with Plasmodium berghei [4] it was 0 days; with Plasmodium berghei [7] it was 0 days. Besides, the Activity result in the data set with Mus musculus [5] and in the data set with Mus musculus [8] was “Toxic” throughout. Besides, the outcome in the data set with Plasmodium berghei [6] and in the data set with Plasmodium berghei [9] was Active.

For `C/C(=N/NC(=S)N1CCC(O)CC1)c1ccccn1`, the Survival in the data set on Plasmodium berghei [1] is -0.1 days; in the data set on Plasmodium berghei [4], 0 days; in the data set with Plasmodium berghei [7] it was 0.6 days. The Activity result in the data set on Mus musculus [2], in the data set with Mus musculus [5] and in the data set on Mus musculus [8] was “Toxic” throughout. Besides, the result in the data set with Plasmodium berghei [6] was Active.

On to `C/C(=N/NC(=S)N1CCCCCCCC1)c1ccccn1`, for which the Survival is -0.3 days in the data set with Plasmodium berghei [1], 1.7 days in the data set with Plasmodium berghei [4] and 9 days with Plasmodium berghei [7]. Besides, the outcome with Plasmodium berghei [9] was Active.

Take `C/C(=N/NC(=S)N1CCCCCCC1)c1ccccn1`: the Survival in the data set with Plasmodium berghei [1] worked out at 0.6 days. For the same molecule, the outcome with Plasmodium berghei [10], in the data set with Plasmodium berghei [6], in the data set with Plasmodium berghei [11] and in the data set with Plasmodium berghei [9] was Active.

For `C/C(=N/NC(=S)N1CCN(c2ccccn2)CC1)c1ccccn1`, the outcome in the data set with Plasmodium berghei [3], in the data set on Plasmodium berghei [10], in the data set with Plasmodium berghei [6], with Plasmodium berghei [11] and with Plasmodium berghei [9] was Active.

As to `C/C(=N/NC(=S)N1CCCC(C)C1)c1ccccn1` (centres undefined), the values for the Survival in the data set with Plasmodium berghei [1] and in the data set with Plasmodium berghei [7] were 4.1 days and 0 days, respectively. Besides, the Activity result with Mus musculus [5] and with Mus musculus [8] was “Toxic” in each case. In addition, the result in the data set with Plasmodium berghei [6] and in the data set on Plasmodium berghei [9] was Active.

Regarding `CCOC(=O)N1CCN(C(=S)N/N=C(/C)c2ccccn2)CC1`, the Activity entry with Mus musculus [2], in the data set with Mus musculus [5] and in the data set with Mus musculus [8] was “Toxic” each time. Besides, the outcome in the data set on Plasmodium berghei [3], with Plasmodium berghei [6] and in the data set on Plasmodium berghei [9] was Active. Also, the Survival in the data set with Plasmodium berghei [4] and with Plasmodium berghei [7] was 0 days in each case.

`C/C(=N/NC(=S)N1CCCCC1)c1ccccn1`: the Survival in the data set with Plasmodium berghei [1] is -0.4 days; with Plasmodium berghei [4], -0.4 days; in the data set on Plasmodium berghei [7] it was 0 days.

For the molecule `C/C(=N/NC(=S)N(C)C)c1ccccn1`, the Survival in the data set with Plasmodium berghei [1] was determined as 0.5 days; with Plasmodium berghei [4], 0 days; in the data set with Plasmodium berghei [7] it was 0 days. The Activity entry in the data set with Mus musculus [2], in the data set with Mus musculus [5] and in the data set on Mus musculus [8] was “Toxic” in each case. Also, the outcome in the data set with Plasmodium berghei [6] and in the data set with Plasmodium berghei [9] was Active.

In the case of `C/C(=N/NC(=S)N1CCN(c2ccc(F)cc2)CC1)c1ccccn1`, the outcome in the data set with Plasmodium berghei [3], in the data set with Plasmodium berghei [6] and in the data set on Plasmodium berghei [9] was Active. Further, the Survival with Plasmodium berghei [7] was 9 days.

For the molecule `C/C(=N/NC(=S)N1CC(C)OC(C)C1)c1ccccn1` (centres undefined), the Activity entry with Mus musculus [2], in the data set with Mus musculus [5] and in the data set with Mus musculus [8] was “Toxic” each time. The outcome in the data set with Plasmodium berghei [3], in the data set with Plasmodium berghei [6] and in the data set on Plasmodium berghei [9] was Active. The Survival with Plasmodium berghei [4] and in the data set with Plasmodium berghei [7] was 0 days each time.

For `C/C(=N/NC(=S)N1CCCCC1C)c1ccccn1` (centres undefined), the outcome with Plasmodium berghei [3], with Plasmodium berghei [6] and in the data set with Plasmodium berghei [9] was Active. The Survival with Plasmodium berghei [4] and in the data set with Plasmodium berghei [7] was 0 days in each case. The Activity entry in the data set on Mus musculus [5] and in the data set on Mus musculus [8] was “Toxic” each time.

Consider `CCC1CCCCN1C(=S)N/N=C(/C)c1ccccn1` (centres undefined), for which the Survival in the data set with Plasmodium berghei [1] is 5.6 days; in the data set on Plasmodium berghei [7], -0.2 days. Also, the result with Plasmodium berghei [6] was Active. Besides, the Activity result in the data set with Mus musculus [8] is “Toxic”.

`C/C(=N/NC(=S)N(C)C1CCCCC1)c1ccccn1`: the Survival with Plasmodium berghei [1] is 3.7 days; in the data set on Plasmodium berghei [7], -0.3 days. For the same molecule, the Activity entry with Mus musculus [5] and in the data set with Mus musculus [8] was “Toxic” each time. The result in the data set with Plasmodium berghei [6] was Active.

As for `C/C(=N/NC(=S)N(C)CC(O)C(O)C(O)C(O)CO)c1ccccn1` (centres undefined), the figures for the Survival in the data set on Plasmodium berghei [1], in the data set with Plasmodium berghei [4] and in the data set on Plasmodium berghei [7] were 0.2 days, 1.4 days and 0.3 days, respectively. Besides, in the data set with Mus musculus [8], the Activity result was “Toxic”.

Consider `C/C(=N/NC(=S)N1CCN(c2ccccn2)CC1)c1ccccn1.Cl`, for which the Survival in the data set on Plasmodium berghei [1] worked out at 3.2 days; in the data set on Plasmodium berghei [7] it was 0 days. For the same molecule, the Activity result with Mus musculus [8] is “Toxic”.

In the case of `C/C(=N/NC(=S)N(CC(C)C)CC(C)C)c1ccccn1`, the results for the Survival in the data set with Plasmodium berghei [1], in the data set on Plasmodium berghei [4] and in the data set on Plasmodium berghei [7] were -0.2 days, 0.8 days and 0.5 days, respectively. Moreover, the Activity entry in the data set with Mus musculus [5] and in the data set on Mus musculus [8] was “Toxic” each time.

With `C/C(=N/NC(=S)N(C)CCc1ccccc1)c1ccccn1`, the values for the Survival in the data set on Plasmodium berghei [1] and in the data set on Plasmodium berghei [4] were 0.4 days and 7.2 days, respectively. Also, the outcome in the data set with Plasmodium berghei [6] and with Plasmodium berghei [9] was Active.

As for `C/C(=N/NC(=S)N1CC=CCC1)c1ccccn1`, the Survival with Plasmodium berghei [1] was 4 days; in the data set with Plasmodium berghei [4] it was 1.4 days; with Plasmodium berghei [7] it was 7.4 days. Further, the Activity result in the data set on Mus musculus [5] and in the data set with Mus musculus [8] was “Toxic” each time.

For the molecule `C/C(=N/NC(=S)N1CCC(c2ccccc2)CC1)c1ccccn1`, in the data set on Plasmodium berghei [1], the Survival was 0.4 days. The result in the data set on Plasmodium berghei [10], in the data set on Plasmodium berghei [6], in the data set on Plasmodium berghei [11] and with Plasmodium berghei [9] was Active.
